The values that follow come from BindingDB's records for doi:10.1021/jm00065a015 (Smithkline Beecham Pharmaceuticals, 1993).

The target of the assay is T1, 5-hydroxytryptamine receptor 2C (Rattus norvegicus, UniProt P08909).
T1 sequence (P08909 whole entry): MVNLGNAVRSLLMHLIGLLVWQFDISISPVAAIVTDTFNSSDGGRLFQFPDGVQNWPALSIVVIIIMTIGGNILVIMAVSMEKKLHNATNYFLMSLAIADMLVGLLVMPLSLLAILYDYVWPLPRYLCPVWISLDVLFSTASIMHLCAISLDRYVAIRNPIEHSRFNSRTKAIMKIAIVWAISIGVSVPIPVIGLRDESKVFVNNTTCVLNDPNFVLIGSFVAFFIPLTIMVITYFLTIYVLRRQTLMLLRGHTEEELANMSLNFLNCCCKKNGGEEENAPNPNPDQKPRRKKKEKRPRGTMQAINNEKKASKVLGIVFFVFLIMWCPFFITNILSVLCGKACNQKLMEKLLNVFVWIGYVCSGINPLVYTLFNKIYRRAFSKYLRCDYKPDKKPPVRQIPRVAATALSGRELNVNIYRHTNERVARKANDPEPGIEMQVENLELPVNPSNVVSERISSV
In words: Binding affinity for 5-hydroxytryptamine 1C receptor was determined.

`NCCc1c[nH]c2ccc(C(N)=O)cc12` [[3H]-5-carboxamidotryptamine] had a Kd of 631 nM.

Broadly, the Kd is the concentration at which binding is half-saturated.
